The test system of series [1] is E. coli, S. aureus and B. cereus, and LAB. Particulars: compared with CA and FA; cited from earlier work.
A short description of series [2]: Color expression of cis and trans isomers of acylated delphinidin at different pH. In kind it is physicochemical. Particulars: for color expression: pH 4. The procedure:
Delphinidin-3-(p-coumaroyl)-rutinoside-5-glucoside was extracted from Chinese eggplants, semi-purified and taken to 400 mg/L in methanol. Extract aliquots were placed in sealed quartz cuvettes, with the clear side facing up, and irradiated with different light sources (sunlight, D65 lamp, and UV chamber at 365 nm) for up to 112 hrs. Pigment isomerization was monitored over time on a uHPLC-PDA-MS/MS, using a pentafluorophenyl column and positive electrospray ionization on a triple quadrupole. Cis and trans-delphinidin-derivatives were isolated to compare their color stability and strength. Color was measured on a ColorQuest XE spectrophotometer, using 10° observer angle, illuminant D65, and total transmittance. Data was collected in triplicates and analyzed by two-way ANOVA.

Turning to `O=C(O)/C=C/c1ccc(O)cc1` [pCA, p-coumaric acid], the antibacterial activity entry in series [1] is listed as “stronger antibacterial activity”.

For “Delphinidin-3-(p-coumaroyl)-rutinoside-5-glucoside [trans-delphinidin]”, the color expression result in series [2] was “bleached completely”.

Take “Delphinidin-3-(p-coumaroyl)-rutinoside-5-glucoside [cis-delphinidin]”: the color expression result in series [2] was “noticeable color”. Besides, in series [2] (pH 5), the color intensity entry was “greater color intensity than the trans-isomer”.
